1 molecule from publication PMC3319082 (Bioorganic & medicinal chemistry letters, 2011) can be followed below.

The target of the test is rat mGlu4 (Rattus norvegicus, UniProt P31423). Format: cell-based. The conditions noted are these: rat mGlu4/GIRK cells, Fig. 2.
Sequence of rat mGlu4 (P31423 33-912): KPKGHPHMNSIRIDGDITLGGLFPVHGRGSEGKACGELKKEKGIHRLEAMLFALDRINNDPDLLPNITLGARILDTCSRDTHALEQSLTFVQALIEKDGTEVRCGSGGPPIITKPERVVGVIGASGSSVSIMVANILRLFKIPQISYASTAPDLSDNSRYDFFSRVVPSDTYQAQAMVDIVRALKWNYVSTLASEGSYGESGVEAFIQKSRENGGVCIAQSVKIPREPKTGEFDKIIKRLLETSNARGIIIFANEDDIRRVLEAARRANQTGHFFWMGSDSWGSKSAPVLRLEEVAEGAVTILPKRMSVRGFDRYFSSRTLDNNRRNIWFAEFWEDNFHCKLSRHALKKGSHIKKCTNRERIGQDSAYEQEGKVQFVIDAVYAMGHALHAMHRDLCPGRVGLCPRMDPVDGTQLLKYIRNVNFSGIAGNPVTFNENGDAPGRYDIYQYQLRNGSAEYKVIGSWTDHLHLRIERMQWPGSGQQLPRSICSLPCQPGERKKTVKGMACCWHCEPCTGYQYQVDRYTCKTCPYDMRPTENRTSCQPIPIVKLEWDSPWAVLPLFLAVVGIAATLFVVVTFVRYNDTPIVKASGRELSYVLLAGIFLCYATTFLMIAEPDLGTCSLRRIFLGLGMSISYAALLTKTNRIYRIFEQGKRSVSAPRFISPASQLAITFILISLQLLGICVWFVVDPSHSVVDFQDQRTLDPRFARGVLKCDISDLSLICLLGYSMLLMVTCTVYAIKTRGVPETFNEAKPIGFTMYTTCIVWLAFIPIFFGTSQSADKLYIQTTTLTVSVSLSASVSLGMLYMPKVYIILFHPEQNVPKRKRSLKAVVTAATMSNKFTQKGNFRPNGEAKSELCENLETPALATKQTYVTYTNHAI

Consider `O=C(COc1ccccc1Br)c1ccc(Cl)nc1` [2e], for which the “Antagonist activity in rat mGlu4 thallium flux assay” value is recorded as “confirmed to be active”.
